For orientation: EC50 means the midpoint of the concentration-response curve.

Activity calls are given as the source filed them. No cut-off for these calls is given here. Starred links: 1 amine or outer side, 2 acyl side, 3 side chain; linkers in the order of their positions; H or OH if unused. Residues, ends and D or L forms follow the SMILES beside them. Groups on a side chain read outwards from the residue. *: point of attachment. X5 = CC(=O)[C@H](CCCCNC(=O)CC[C@H](NC(=O)CCCCCCCCCCNC(=O)COC(=O)C(C)(C)CCCOc1cc(C)ccc1C)C(=O)O)N*; X4 = CC(=O)[C@H](CCCCNC(=O)CC[C@H](NC(=O)COC(=O)C(C)(C)CCCOc1cc(C)ccc1C)C(=O)O)N*; Glycoloyl(O-gemfibrozoyl) = Cc1ccc(C)c(OCCCC(C)(C)C(=O)OCC(=O)*)c1; γGlu = O=C(O)[C@H](CCC(=O)[*:2])N[*:1]; Aun = NCCCCCCCCCCC(=O)O; Ahx = NCCCCCC(=O)O

One data set has as its system Mus musculus. The data set is described as follows: Hypoglycemic activity in 12 hrs fasted ICR mouse assessed as reduction in blood glucose level at 25 nmol/kg, ip dosed 30 mins before glucose challenge measured up to 120 mins by OGTT method. As to conditions: time 150.0 min. Type of data set: functional, organism-based.
For data set [1], the target named is Glucagon-like peptide 1 receptor (Homo sapiens, UniProt P43220). As to the kind of experiment: Agonist activity at human GLP-1R expressed in HEK293 cells assessed as stimulation of cAMP accumulation incubated for 60 mins by HTRF assay. Type of data set: functional, cell-based. In general terms: cAMP levels reflect the balance of adenylyl cyclase and phosphodiesterase activity.

Data set [2] is described as follows: Stability in Sprague-Dawley rat plasma at 1000 ng/ml measured up to 48 hrs under shaking condition by LC-MS/MS analysis. Type of data set: ADME, cell-free.

Chain of Glucagon-like peptide 1 receptor (P43220 whole entry): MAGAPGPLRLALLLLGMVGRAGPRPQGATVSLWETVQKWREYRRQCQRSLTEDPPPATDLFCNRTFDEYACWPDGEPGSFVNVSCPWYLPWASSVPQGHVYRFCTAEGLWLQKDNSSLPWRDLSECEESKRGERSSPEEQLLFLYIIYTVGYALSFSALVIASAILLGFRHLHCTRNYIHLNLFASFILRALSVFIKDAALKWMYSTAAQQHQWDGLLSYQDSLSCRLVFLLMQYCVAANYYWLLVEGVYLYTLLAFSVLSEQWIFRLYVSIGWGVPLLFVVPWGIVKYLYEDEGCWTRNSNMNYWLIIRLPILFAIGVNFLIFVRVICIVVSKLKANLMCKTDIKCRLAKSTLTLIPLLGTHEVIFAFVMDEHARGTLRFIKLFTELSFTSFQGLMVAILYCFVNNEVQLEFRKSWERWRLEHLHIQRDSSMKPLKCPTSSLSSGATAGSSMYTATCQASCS

Consider `CC[C@H](C)[C@H](NC(=O)[C@H](CC(C)C)NC(=O)[C@H](Cc1c[nH]c2ccccc12)NC(=O)[C@H](CCC(=O)O)NC(=O)[C@@H](NC(=O)[C@H](Cc1ccccc1)NC(=O)[C@H](CCC(=O)O)NC(=O)[C@H](CCCCN)NC(=O)[C@H](C)NC(=O)[C@H](C)NC(=O)[C@H](CCC(=O)O)NC(=O)[C@H](CCC(=O)O)NC(=O)[C@H](CCC(=O)O)NC(=O)[C@H](CC(C)C)NC(=O)[C@H](Cc1ccc(O)cc1)NC(=O)[C@H](CCC(=O)O)NC(=O)[C@@H](NC(=O)[C@@H](NC(=O)[C@H](CC(=O)O)NC(=O)[C@H](CC(N)=O)NC(=O)[C@@H](NC(=O)[C@H](Cc1ccc(O)cc1)NC(=O)[C@@H](NC(=O)CNC(=O)[C@H](CCC(=O)O)NC(=O)CNC(=O)[C@@H](N)Cc1cnc[nH]1)[C@@H](C)O)[C@@H](C)O)C(C)C)[C@@H](C)O)[C@@H](C)CC)C(=O)N[C@@H](CCCCNC(=O)CC[C@H](NC(=O)CCCCCNC(=O)COC(=O)C(C)(C)CCCOc1cc(C)ccc1C)C(=O)O)C(=O)NCC(=O)N[C@@H](CCCCN)C(=O)O` (H-HGEGTYTNDVTEYLEEEAAKEFIEWLIK([γGlu-Ahx-Glycoloyl(O-gemfibrozoyl)])GK-OH), for which the result in the data set with Mus musculus was Active. Further, the EC50 in data set [1] was 0.21 nM. Moreover, the Stabilty result in data set [2] is “Stable”.
As to `CC[C@H](C)[C@H](NC(=O)[C@H](CC(C)C)NC(=O)[C@H](Cc1c[nH]c2ccccc12)NC(=O)[C@H](CCC(=O)O)NC(=O)[C@@H](NC(=O)[C@H](Cc1ccccc1)NC(=O)[C@H](CCC(=O)O)NC(=O)[C@H](CCCCN)NC(=O)[C@H](C)NC(=O)[C@H](C)NC(=O)[C@H](CCC(=O)O)NC(=O)[C@H](CCC(=O)O)NC(=O)[C@H](CCC(=O)O)NC(=O)[C@H](CC(C)C)NC(=O)[C@H](Cc1ccc(O)cc1)NC(=O)[C@H](CCC(=O)O)NC(=O)[C@@H](NC(=O)[C@@H](NC(=O)[C@H](CC(=O)O)NC(=O)[C@H](CC(N)=O)NC(=O)[C@@H](NC(=O)[C@H](Cc1ccc(O)cc1)NC(=O)[C@@H](NC(=O)CNC(=O)[C@H](CCC(=O)O)NC(=O)CNC(=O)[C@@H](N)Cc1cnc[nH]1)[C@@H](C)O)[C@@H](C)O)C(C)C)[C@@H](C)O)[C@@H](C)CC)C(=O)N[C@@H](CCCCN)C(=O)NCC(=O)N[C@@H](CCCCNC(=O)CC[C@H](NC(=O)COC(=O)C(C)(C)CCCOc1cc(C)ccc1C)C(=O)O)C(C)=O` (H-HGEGTYTNDVTEYLEEEAAKEFIEWLIKG-X4), the outcome in the data set on Mus musculus was Active. In data set [1], the EC50 was 0.38 nM. For the same compound, the Stabilty entry in data set [2] is “Stable”.
For `CC[C@H](C)[C@H](NC(=O)[C@H](CC(C)C)NC(=O)[C@H](Cc1c[nH]c2ccccc12)NC(=O)[C@H](CCC(=O)O)NC(=O)[C@@H](NC(=O)[C@H](Cc1ccccc1)NC(=O)[C@H](CCC(=O)O)NC(=O)[C@H](CCCCN)NC(=O)[C@H](C)NC(=O)[C@H](C)NC(=O)[C@H](CCC(=O)O)NC(=O)[C@H](CCC(=O)O)NC(=O)[C@H](CCC(=O)O)NC(=O)[C@H](CC(C)C)NC(=O)[C@H](Cc1ccc(O)cc1)NC(=O)[C@H](CCC(=O)O)NC(=O)[C@@H](NC(=O)[C@@H](NC(=O)[C@H](CC(=O)O)NC(=O)[C@H](CC(N)=O)NC(=O)[C@@H](NC(=O)[C@H](Cc1ccc(O)cc1)NC(=O)[C@@H](NC(=O)CNC(=O)[C@H](CCC(=O)O)NC(=O)CNC(=O)[C@@H](N)Cc1cnc[nH]1)[C@@H](C)O)[C@@H](C)O)C(C)C)[C@@H](C)O)[C@@H](C)CC)C(=O)N[C@@H](CCCCNC(=O)CC[C@H](NC(=O)CCCCCCCCCCNC(=O)COC(=O)C(C)(C)CCCOc1cc(C)ccc1C)C(=O)O)C(=O)NCC(=O)N[C@@H](CCCCN)C(=O)O` (H-HGEGTYTNDVTEYLEEEAAKEFIEWLIK([γGlu-Aun-Glycoloyl(O-gemfibrozoyl)])GK-OH), the outcome in the data set on Mus musculus was Active. Besides, the EC50 in data set [1] stood at 0.21 nM. Moreover, the Stabilty result in data set [2] is recorded as “Stable”.
For `CC[C@H](C)[C@H](NC(=O)[C@H](CC(C)C)NC(=O)[C@H](Cc1c[nH]c2ccccc12)NC(=O)[C@H](CCC(=O)O)NC(=O)[C@@H](NC(=O)[C@H](Cc1ccccc1)NC(=O)[C@H](CCC(=O)O)NC(=O)[C@H](CCCCN)NC(=O)[C@H](C)NC(=O)[C@H](C)NC(=O)[C@H](CCC(=O)O)NC(=O)[C@H](CCC(=O)O)NC(=O)[C@H](CCC(=O)O)NC(=O)[C@H](CC(C)C)NC(=O)[C@H](Cc1ccc(O)cc1)NC(=O)[C@H](CCC(=O)O)NC(=O)[C@@H](NC(=O)[C@@H](NC(=O)[C@H](CC(=O)O)NC(=O)[C@H](CC(N)=O)NC(=O)[C@@H](NC(=O)[C@H](Cc1ccc(O)cc1)NC(=O)[C@@H](NC(=O)CNC(=O)[C@H](CCC(=O)O)NC(=O)CNC(=O)[C@@H](N)Cc1cnc[nH]1)[C@@H](C)O)[C@@H](C)O)C(C)C)[C@@H](C)O)[C@@H](C)CC)C(=O)N[C@@H](CCCCNC(=O)CC[C@H](NC(=O)COC(=O)C(C)(C)CCCOc1cc(C)ccc1C)C(=O)O)C(=O)NCC(=O)N[C@@H](CCCCN)C(=O)O` (H-HGEGTYTNDVTEYLEEEAAKEFIEWLIK([γGlu-Glycoloyl(O-gemfibrozoyl)])GK-OH), in that order: “Active”, 0.21 nM and “Stable”.
As for `CC[C@H](C)[C@H](NC(=O)[C@H](CC(C)C)NC(=O)[C@H](Cc1c[nH]c2ccccc12)NC(=O)[C@H](CCC(=O)O)NC(=O)[C@@H](NC(=O)[C@H](Cc1ccccc1)NC(=O)[C@H](CCC(=O)O)NC(=O)[C@H](CCCCN)NC(=O)[C@H](C)NC(=O)[C@H](C)NC(=O)[C@H](CCC(=O)O)NC(=O)[C@H](CCC(=O)O)NC(=O)[C@H](CCC(=O)O)NC(=O)[C@H](CC(C)C)NC(=O)[C@H](Cc1ccc(O)cc1)NC(=O)[C@H](CCC(=O)O)NC(=O)[C@@H](NC(=O)[C@@H](NC(=O)[C@H](CC(=O)O)NC(=O)[C@H](CC(N)=O)NC(=O)[C@@H](NC(=O)[C@H](Cc1ccc(O)cc1)NC(=O)[C@@H](NC(=O)CNC(=O)[C@H](CCC(=O)O)NC(=O)CNC(=O)[C@@H](N)Cc1cnc[nH]1)[C@@H](C)O)[C@@H](C)O)C(C)C)[C@@H](C)O)[C@@H](C)CC)C(=O)N[C@@H](CCCCN)C(=O)NCC(=O)N[C@@H](CCCCNC(=O)CC[C@H](NC(=O)CCCCCCCCCCNC(=O)COC(=O)C(C)(C)CCCOc1cc(C)ccc1C)C(=O)O)C(C)=O` (H-HGEGTYTNDVTEYLEEEAAKEFIEWLIKG-X5), the outcome with Mus musculus was Active. Also, the EC50 in data set [1] is 0.38 nM. In addition, in data set [2], the Stabilty entry is reported as “Stable”.
As to `CC[C@H](C)[C@H](NC(=O)[C@H](CC(C)C)NC(=O)[C@H](Cc1c[nH]c2ccccc12)NC(=O)[C@H](CCC(=O)O)NC(=O)[C@@H](NC(=O)[C@H](Cc1ccccc1)NC(=O)[C@H](CCC(=O)O)NC(=O)[C@H](CCCCNC(=O)CC[C@H](NC(=O)COC(=O)C(C)(C)CCCOc1cc(C)ccc1C)C(=O)O)NC(=O)[C@H](C)NC(=O)[C@H](C)NC(=O)[C@H](CCC(=O)O)NC(=O)[C@H](CCC(=O)O)NC(=O)[C@H](CCC(=O)O)NC(=O)[C@H](CC(C)C)NC(=O)[C@H](Cc1ccc(O)cc1)NC(=O)[C@@H](NC(=O)[C@@H](NC(=O)[C@@H](NC(=O)[C@H](CC(=O)O)NC(=O)[C@H](CC(N)=O)NC(=O)[C@@H](NC(=O)[C@H](Cc1ccc(O)cc1)NC(=O)[C@@H](NC(=O)CNC(=O)[C@H](CCC(=O)O)NC(=O)CNC(=O)[C@@H](N)Cc1cnc[nH]1)[C@@H](C)O)[C@@H](C)O)C(C)C)[C@@H](C)O)C(C)C)[C@@H](C)CC)C(=O)N[C@@H](CCCCN)C(=O)NCC(=O)N[C@@H](CCCCN)C(=O)O` (H-HGEGTYTNDVTVYLEEEAAK([γGlu-Glycoloyl(O-gemfibrozoyl)])EFIEWLIKGK-OH), the result with Mus musculus was Active. Moreover, the EC50 in data set [1] came to 0.093 nM. The Stabilty result in data set [2] is reported as “Stable”.
